Experimental data from US20070265196A1, “Method of Modulating Pro-Inflammatory and Inflammatory Activity Mediated by C-Reactive Protein” (MEDVET SCIENCE PTY., LTD., priority 2004, published 2007).
Entries after “also recorded” stand apart in the source; their conditions may differ.

Legend:
[1] = test system: C-reactive protein-induced expression of E-selectin, VCAM-1 and ICAM-1; assay: Inhibition of C-reactive protein-induced cell-surface adhesion molecule expression in HUVEC (flow cytometry); format: cell-based, human; settings: for effect on C-reactive protein-induced expression of adhesion molecules (E-selectin, ICAM-1, VCAM-1): 16 hrs preincubation in serum-free medium, then C-reactive protein 10 μg/ml for 5 hrs; for effect of antioxidant on PLPC-dependent inhibition of C-reactive protein-induced E-selectin expression: HUVEC preincubated 16 hrs with 35 μM PLPC in presence of the antioxidant
Description: (§1) Human umbilical vein endothelial cells (HUVEC) and bovine aortic endothelial cells (BAEC) were isolated and cultured as described previously (Wall et al (1978)). Cells were used at passages 2 to 3 for HUVEC and passages 3-10 for BAEC. For detection of adhesion molecules, HUVEC were incubated overnight in Opti-MEM serum free medium (Gibco, Invitrogen Corporation) in the presence or absence of HDL and then treated with recombinant human C-reactive protein (Calbiochem) for 5 hrs unless indicated otherwise. After the treatment, cells were washed with medium M199 and incubated with primary monoclonal antibodies against E-selectin, VCAM-1, ICAM-1 or isotype-matched nonrelevant control antibodies for 30 min as described previously (Gamble et al (1993)). Cells were then incubated with fluorescein isothiocyanate-conjugated secondary antibody for 30 min. The cells were then harvested by trypsinization and fixed in 2.5% formaldehyde (antibody binding prior to trypsinizing has been reported to prevent the partial hydrolyzation of the surface adhesion molecules (Grabner et al (2000))). The expression of cell-surface adhesion molecules was measured as fluorescence intensity by use of a Coulter Epics Profile XL flow cytometer. Unless stated otherwise, the results represent mean fluorescence of the positive population±SEM from one experiment and are representative at least three independent experiments. Differences between means were evaluated by Student's t-tests. ANOVA was used to identify statistical significance of multiple comparisons.
As described previously (Ashby et al (1998)) the lipoproteins were isolated from normal healthy adult donors by sequential ultracentrifugation in their appropriate density range: total HDL 1.07<d<1.21 and LDL 1.019<d<1.055 g/ml. The resulting preparations of lipoproteins were dialyzed against endotoxin-free PBS (pH 7.4) prior to use. Discoidal reconstituted HDL containing apoA-I and PLPC, were prepared by the cholate dialysis method described by Matz (1982). Small unilamellar vesicles (SUVs) containing either PLPC or 1-palmitoyl-2-oleoyl-sn-glycero-3-phosphocholine (POPC), in butylated hydroxytoluene (BHT) (molar ratio of PC to BHT, 10:1), were prepared in PBS precisely as described by Jonas (1986). Oxidation of SUV was produced by incubation with 5 μM CuSO4 in the absence of BHT for 48 hours at 37° C.

[2] = test system: HUVEC expression of E-selectin, VCAM-1 and ICAM-1; assay: Induction of adhesion molecule expression in HUVEC by the substance itself (flow cytometry); format: cell-based, human; settings: for effect of heating at 65° C. for 1 hour on activity (E-selectin induction): heated 65° C., serum free medium
Description: as §1

[3] = test system: adherence of U937 cells to C-reactive protein-activated BAEC; assay: Adherence of U937 cells to C-reactive protein-treated BAEC; format: cell-based, bovine; settings: BAEC incubated with C-reactive protein for 24 hours
Description: U937 cells (CRL 1593.2; ATCC) were colorimetrically labelled with 0.2 mg/ml 3-(4,5-dimethylthiazol-2-yl)-2,5-diphenyltetrazolium bromide (MTT; Promega) in normal culture medium for 30 min at 37° C. The cells were collected by low-speed centrifugation and resuspended at a density of 2×10^5 cells/ml in medium without FCS. BAECs were seeded into 24-well plates and treated as desired in triplicate. After the treatment, BAECs were washed twice with RPMI-1640 medium. The MTT-labelled U937 cell suspension (200 μl/well) was then added into the BAEC cultures and incubated for 30 min at 37° C. Non-adherent cells were removed by rinsing the plates three times with PBS, and the number of adherent cells was counted under microscopy at least 4 fields per well.

Compound: CCCCC/C=C\C/C=C\CCCCCCCC(=O)OC(COC(=O)CCCCCCCCCCCCCCC)COP(=O)([O-])OCC[N+](C)(C)C (stereo not drawn) [PLPC]
- C-reactive protein-induced E-selectin expression, substance added simultaneously with C-reactive protein ([1]; HUVEC, 35 μM, C-reactive protein 10 μg/ml 5 hrs, no pre-incubation): not
- inhibitory effect on C-reactive protein-induced adhesion molecule expression after 1-hour pre-incubation ([1]; HUVEC, 1-hour pre-incubation): no inhibitory effect
- inhibitory effect on C-reactive protein-induced adhesion molecule expression when added simultaneously with C-reactive protein ([1]; HUVEC, no pre-incubation): no inhibitory effect
- persistence of inhibitory effect when removed from the medium after 16-hour pre-incubation before C-reactive protein activation ([1]; HUVEC, washout): did not persist
- effect of the substance alone on adhesion molecule expression ([2]; HUVEC): had no effect

Compound: CCCCCCCC/C=C\CCCCCCCC(=O)O[C@H](COC(=O)CCCCCCCCCCCCCCC)COP(=O)([O-])OCC[N+](C)(C)C [POPC SUVs, 1-palmitoyl-2-oleoyl-sn-glycero-3-phosphocholine]
- effect on C-reactive protein-induced expression of adhesion molecules (E-selectin, ICAM-1, VCAM-1) ([1]; HUVEC): no inhibitory effect
- effect of CuSO4-exposed phospholipid on C-reactive protein-induced adhesion molecule expression ([1]; HUVEC, control exposed to CuSO4): did not affect

Compound: CC(Cc1ccc(O)c(O)c1)C(C)Cc1ccc(O)c(O)c1 (stereo not drawn) [nordihydroguaiaretic acid]
- effect of antioxidant on PLPC-dependent inhibition of C-reactive protein-induced E-selectin expression [1]: reversed in a dose-dependent manner
- effect of antioxidant on PLPC-dependent inhibition of C-reactive protein-induced E-selectin expression ([1]; listed as NDGA): completely abolish

Compound: C[N+](C)(C)CCOP(=O)(O)O [phosphorylcholine]
- effect on the C-reactive protein's activity ([1]; up to 100 μM added to the medium): had no effect

Compound: CCCCCCCCCCC[C@@H](C[C@@H]1OC(=O)[C@H]1CCCCCC)OC(=O)[C@H](CC(C)C)NC=O [tetrahydrolipstatin]
- effect of lipase inhibitor treatment of cells on the anti-inflammatory activity of PLPC ([1]; HUVEC): not affected

Compound: Cc1c(C)c2c(c(C)c1O)CC[C@@](C)(CCC[C@H](C)CCC[C@H](C)CCCC(C)C)O2 [α-tocopherol]
- effect of antioxidant on PLPC-dependent inhibition of C-reactive protein-induced E-selectin expression [1]: reversed in a dose-dependent manner; also recorded: completely abolish
- effect of the substance alone on adhesion molecule expression ([2]; HUVEC): had no effect

Compound: C-reactive protein: recombinant human C-reactive protein (Calbiochem), proinflammatory stimulus
- concentration at which dose-dependent activity reaches a maximum ([2]; E-selectin expression, HUVEC stimulated 5 hrs): 10 to 20 µg/mL
- cell surface expression of E-selectin VCAM-1 and ICAM-1 ([2]; HUVEC treated with C-reactive protein (10 μg/ml, 5 hrs)): significant increase
- inflammatory effect in fresh serum-free medium ([2]; HUVEC, fresh (unconditioned) serum-free medium): no inflammatory effect
- effect of heating at 65° C. for 1 hour on activity (E-selectin induction) ([2]; HUVEC): completely eliminated
- increase in adhesion of U937 cells to BAEC [3]: more than 6 fold

Compound: Lipopolysaccharide [LPS]
- induction of adhesion molecule expression ([2]; HUVEC, concentrations of up to 1 ng/ml): insufficient to induce
- effect of heating at 65° C. for 1 hour on activity (E-selectin induction) ([2]; HUVEC): did not alter

Compound: lipid-free apoA-I: lipid-free apolipoprotein A-I, the protein component of rHDL
- effect on C-reactive protein-induced expression of adhesion molecules (E-selectin, ICAM-1, VCAM-1) ([1]; HUVEC): had no effect
